Experiments:
[1] = system: ATCC MCF7 cells (ERα expressing); experiment: Inhibition of E2-induced proliferation, MTS assay, ATCC MCF7 expressing only ERα; assay type: cell-based, human; settings: 1 nM E2, 6 days
MDA-MB231 cells = experiment: Growth inhibition of ER-negative MDA-MB231 cells, MTS assay; settings: for growth inhibitory activity: ER-negative MDA-MB231 cells, 72 h, MTS; for toxicity to cells: MDA-MB231 cells, 25 μM

| SMILES | GI50, inhibition of E2-induced proliferation [1] | growth inhibitory activity (MDA-MB231 cells) | toxicity to cells (MDA-MB231 cells) |
| --- | --- | --- | --- |
| CCCC[C@@H]1C[C@H]1[C@@H](NC(=O)c1ccccc1)c1ccc(-c2ccc(O)cc2)cc1F [Compound 11b] | did not demonstrate inhibition | did not demonstrate significant growth inhibitory activity | toxicity |
| CCCC[C@@H]1C[C@H]1[C@@H](N)c1ccc(-c2ccc(O)cc2)cc1F.Cl [Compound 13] |  | did not demonstrate significant growth inhibitory activity | toxicity |
| O=C(c1ccc(OCCN2CCCCC2)cc1)c1c(-c2ccc(O)cc2)sc2cc(O)ccc12 [RAL, Raloxifene, reference compound] |  | did not demonstrate significant growth inhibitory activity | toxicity |

— article PMC2676897 (Bioorganic & medicinal chemistry letters, 2009)
